Measurements taken from patent publication US20230265151A1, “GIP/GLP1 CO-AGONIST COMPOUNDS” (priority 2020, published 2023).
Like-named read-outs stand apart in the source and are kept apart here. *1 amine or outer side, *2 acyl side, *3 side chain or, on linkers, in order; H or OH if unused. Where a SMILES comes first, the peptide text is derived from it. Side-chain parts run from the residue outwards. [ ]: non-standard residue; d: D form. The star is where a group is joined. αMePhe(2-F) = C[C@](N)(Cc1ccccc1F)C(=O)O; γGlu = O=C(O)[C@H](CCC(=O)[*:2])N[*:1]; C14 diacid = O=C(O)CCCCCCCCCCCCC(=O)*; αMeY = C[C@](N)(Cc1ccc(O)cc1)C(=O)O; αMeF = C[C@](N)(Cc1ccccc1)C(=O)O; αMeL = CC(C)C[C@](C)(N)C(=O)O; Orn = NCCC[C@H](N)C(=O)O; AEEA = NCCOCCOCC(=O)O; Aib = CC(C)(N)C(=O)O

Assays:
Type in all cases: cell-based
[1] = molecular target: hGLP-1R (Homo sapiens, UniProt P43220); assay: Functional cAMP formation (HTRF) in HEK-293 clonal cells expressing hGLP-1R, 0.1% bovine casein, without or with 1.0% human serum albumin; design: expressed in transfected cells; details: for Emax: 37° C., 0.1% bovine casein, arithmetic mean; for EC50: hGLP-1R EC50, nM (SEM, n), cAMP, incubated at 37° C., 0.1% bovine casein (no human serum albumin), geometric mean
Method in brief: (§1)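 Readings of the HTRF 665/620 nm ratio, which falls as cAMP rises, were converted to nM cAMP using a standard curve after 30 min peptide exposure at 37° C.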

[2] = molecular target: T1, hGCGR (Homo sapiens, UniProt P47871); assay: Functional cAMP formation (HTRF) in HEK-293 clonal cells expressing hGCGR, 0.1% bovine casein, without or with 1.0% human serum albumin; details: cAMP, incubated at 37° C., 0.1% bovine casein (no human serum albumin), geometric mean
T1 construct: expressed in transfected cells
Method in brief: as §1

[3] = molecular target: T2, hGIPR (Homo sapiens, UniProt P48546); assay: Functional cAMP formation (HTRF) in HEK-293 clonal cells expressing hGIPR, 0.1% bovine casein, without or with 1.0% human serum albumin; details: for Emax: 37° C., 0.1% bovine casein, arithmetic mean; for EC50: cAMP, incubated at 37° C., 0.1% bovine casein (no human serum albumin), geometric mean
T2 construct: expressed in transfected cells
T2 sequence (P48546 22-466): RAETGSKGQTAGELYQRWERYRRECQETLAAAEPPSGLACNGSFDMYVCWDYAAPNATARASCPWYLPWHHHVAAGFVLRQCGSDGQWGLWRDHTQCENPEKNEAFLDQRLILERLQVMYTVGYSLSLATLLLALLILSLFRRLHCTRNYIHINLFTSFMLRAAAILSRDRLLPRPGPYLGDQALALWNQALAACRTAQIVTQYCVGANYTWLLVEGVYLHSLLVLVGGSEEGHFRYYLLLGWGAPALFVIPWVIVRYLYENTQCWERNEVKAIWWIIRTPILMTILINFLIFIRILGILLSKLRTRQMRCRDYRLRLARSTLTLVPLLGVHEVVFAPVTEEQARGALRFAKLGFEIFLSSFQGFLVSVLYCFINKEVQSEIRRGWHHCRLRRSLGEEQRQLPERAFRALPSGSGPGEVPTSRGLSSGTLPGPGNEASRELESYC
Method in brief: as §1

[4] = HEK293, percent of maximal response to GLP-1(7-36)NH2, read-out: hGLP-1R Emax, % ± SEM
[5] = read-out: hGCGR EC50, nM (SEM, n)
[6] = HEK293, percent of maximal response to GIP(1-42)NH2, read-out: hGIPR Emax, % ± SEM
[7] = read-out: hGIPR EC50, nM (SEM, n)
[8] = HEK293, read-out: hGLP-1R Emax, % ± SEM, percent of maximal response to GLP-1(7-36)NH2
[9] = HEK293, read-out: hGIPR Emax, % ± SEM, percent of maximal response to GIP(1-42)NH2

Chain of hGLP-1R (P43220 24-463): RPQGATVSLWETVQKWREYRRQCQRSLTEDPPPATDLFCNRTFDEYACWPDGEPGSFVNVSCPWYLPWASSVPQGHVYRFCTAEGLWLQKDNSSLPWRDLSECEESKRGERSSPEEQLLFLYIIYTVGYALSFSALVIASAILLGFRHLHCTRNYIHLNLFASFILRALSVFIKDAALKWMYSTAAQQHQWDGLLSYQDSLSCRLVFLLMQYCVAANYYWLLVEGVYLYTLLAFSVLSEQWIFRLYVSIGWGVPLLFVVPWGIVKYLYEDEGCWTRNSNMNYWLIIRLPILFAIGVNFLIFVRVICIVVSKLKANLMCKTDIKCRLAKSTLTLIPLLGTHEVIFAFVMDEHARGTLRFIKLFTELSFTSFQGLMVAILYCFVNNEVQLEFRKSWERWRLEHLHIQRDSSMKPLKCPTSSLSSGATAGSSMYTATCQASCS
T1 sequence (P47871 26-477): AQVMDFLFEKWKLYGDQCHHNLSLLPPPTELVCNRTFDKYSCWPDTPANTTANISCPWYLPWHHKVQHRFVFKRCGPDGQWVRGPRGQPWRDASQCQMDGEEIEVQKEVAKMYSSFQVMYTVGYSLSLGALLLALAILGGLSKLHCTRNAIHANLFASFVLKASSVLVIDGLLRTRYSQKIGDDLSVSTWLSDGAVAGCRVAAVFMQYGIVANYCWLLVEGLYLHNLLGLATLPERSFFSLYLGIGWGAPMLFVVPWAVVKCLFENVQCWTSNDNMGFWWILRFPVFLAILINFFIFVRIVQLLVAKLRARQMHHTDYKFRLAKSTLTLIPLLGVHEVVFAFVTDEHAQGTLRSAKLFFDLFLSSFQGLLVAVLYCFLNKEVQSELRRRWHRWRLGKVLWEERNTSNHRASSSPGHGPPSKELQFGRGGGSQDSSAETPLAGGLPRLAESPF

CC[C@H](C)[C@H](NC(=O)[C@H](CCCN)NC(=O)[C@H](CC(=O)O)NC(=O)[C@H](CC(C)C)NC(=O)[C@](C)(CC(C)C)NC(=O)[C@@H](NC(=O)[C@H](CO)NC(=O)[C@H](CCCCNC(=O)COCCOCCNC(=O)COCCOCCNC(=O)CC[C@H](NC(=O)CCCCCCCCCCCCC(=O)O)C(=O)O)NC(=O)[C@H](CC(=O)O)NC(=O)[C@H](CO)NC(=O)[C@@H](NC(=O)[C@](C)(Cc1ccccc1F)NC(=O)[C@@H](NC(=O)CNC(=O)[C@H](CCC(=O)O)NC(=O)C(C)(C)NC(=O)[C@@H](N)Cc1ccc(O)cc1)[C@@H](C)O)[C@@H](C)O)[C@@H](C)CC)C(=O)N[C@@H](C)C(=O)N[C@@H](CCC(N)=O)C(=O)NC(C)(C)C(=O)N[C@@H](CCC(=O)O)C(=O)N[C@@H](Cc1ccccc1)C(=O)N[C@H](C(=O)N[C@H](CCC(=O)O)C(=O)N[C@@](C)(Cc1ccc(O)cc1)C(=O)N[C@@H](CC(C)C)C(=O)N[C@H](C(=O)N[C@@H](CCC(=O)O)C(=O)NCC(=O)NCC(=O)N[C@@H](CCCCNC(=O)COCCOCCNC(=O)COCCOCCNC(=O)CC[C@H](NC(=O)CCCCCCCCCCCCC(=O)O)C(=O)O)C(=O)N[C@@H](CO)C(=O)N[C@@H](CO)C(=O)NCC(=O)N[C@@H](C)C(=O)N1CCC[C@H]1C(=O)N1CCC[C@H]1C(=O)N1CCC[C@H]1C(=O)N[C@@H](CO)C(N)=O)[C@@H](C)CC)[C@@H](C)CC [Example 108] (H-Y[Aib]EGT[αMePhe(2-F)]TSDK([AEEA-AEEA-γGlu-C14 diacid])SI[αMeL]LD[Orn]IAQ[Aib]EFI[dE][αMeY]LIEGGK([AEEA-AEEA-γGlu-C14 diacid])SSGAPPPS-NH2; N-terminus assumed)
Emax [1, 4]: 97.6%
EC50 [2, 5]: > 9950 nM
Emax [3, 6]: 85.2%
EC50 [3, 7]: 0.0249 nM

CC[C@H](C)[C@H](NC(=O)[C@H](CCCN)NC(=O)[C@H](CC(=O)O)NC(=O)[C@H](CC(C)C)NC(=O)[C@](C)(CC(C)C)NC(=O)[C@@H](NC(=O)[C@H](CO)NC(=O)[C@H](CCCCNC(=O)COCCOCCNC(=O)COCCOCCNC(=O)CC[C@H](NC(=O)CCCCCCCCCCCCC(=O)O)C(=O)O)NC(=O)[C@H](CC(=O)O)NC(=O)[C@H](CO)NC(=O)[C@@H](NC(=O)[C@](C)(Cc1ccccc1F)NC(=O)[C@@H](NC(=O)CNC(=O)[C@H](CCC(=O)O)NC(=O)C(C)(C)NC(=O)[C@@H](N)Cc1ccc(O)cc1)[C@@H](C)O)[C@@H](C)O)[C@@H](C)CC)C(=O)N[C@@H](C)C(=O)N[C@@H](CCC(N)=O)C(=O)NC(C)(C)C(=O)N[C@@H](CCC(=O)O)C(=O)N[C@@](C)(Cc1ccccc1)C(=O)N[C@H](C(=O)N[C@@H](CCCCNC(=O)COCCOCCNC(=O)COCCOCCNC(=O)CC[C@H](NC(=O)CCCCCCCCCCCCC(=O)O)C(=O)O)C(=O)N[C@@](C)(Cc1ccc(O)cc1)C(=O)N[C@@H](CC(C)C)C(=O)N[C@H](C(=O)N[C@@H](CCC(=O)O)C(=O)NCC(=O)NCC(=O)N1CCC[C@H]1C(=O)N[C@@H](CO)C(=O)N[C@@H](CO)C(=O)NCC(=O)N[C@@H](C)C(=O)N1CCC[C@H]1C(=O)N1CCC[C@H]1C(=O)N1CCC[C@H]1C(=O)N[C@@H](CO)C(N)=O)[C@@H](C)CC)[C@@H](C)CC [Example 110]
Emax [1, 8]: 98.8%
EC50 [1]: 1.43 nM
EC50 ([2]; hGCGR EC50, nM (SEM, n)): > 9950 nM
EC50 ([3]; hGIPR EC50, nM (SEM, n)): 0.0417 nM

CC[C@H](C)[C@H](NC(=O)[C@H](CCCN)NC(=O)[C@H](CC(=O)O)NC(=O)[C@H](CC(C)C)NC(=O)[C@](C)(CC(C)C)NC(=O)[C@@H](NC(=O)[C@H](CO)NC(=O)[C@H](CCCCNC(=O)COCCOCCNC(=O)COCCOCCNC(=O)CC[C@H](NC(=O)CCCCCCCCCCCCC(=O)O)C(=O)O)NC(=O)[C@H](CC(=O)O)NC(=O)[C@H](CO)NC(=O)[C@@H](NC(=O)[C@](C)(Cc1ccccc1F)NC(=O)[C@@H](NC(=O)CNC(=O)[C@H](CCC(=O)O)NC(=O)C(C)(C)NC(=O)[C@@H](N)Cc1ccc(O)cc1)[C@@H](C)O)[C@@H](C)O)[C@@H](C)CC)C(=O)N[C@@H](C)C(=O)N[C@@H](CCC(N)=O)C(=O)NC(C)(C)C(=O)N[C@@H](CCC(=O)O)C(=O)N[C@@](C)(Cc1ccccc1)C(=O)N[C@H](C(=O)N[C@H](CCC(=O)O)C(=O)N[C@@](C)(Cc1ccc(O)cc1)C(=O)N[C@@H](CC(C)C)C(=O)N[C@H](C(=O)N[C@@H](CCCCNC(=O)COCCOCCNC(=O)COCCOCCNC(=O)CC[C@H](NC(=O)CCCCCCCCCCCCC(=O)O)C(=O)O)C(=O)NCC(=O)NCC(=O)N1CCC[C@H]1C(=O)N[C@@H](CO)C(=O)N[C@@H](CO)C(=O)NCC(=O)N[C@@H](C)C(=O)N1CCC[C@H]1C(=O)N1CCC[C@H]1C(=O)N1CCC[C@H]1C(=O)N[C@@H](CO)C(N)=O)[C@@H](C)CC)[C@@H](C)CC [Example 111] (H-Y[Aib]EGT[αMePhe(2-F)]TSDK([AEEA-AEEA-γGlu-C14 diacid])SI[αMeL]LD[Orn]IAQ[Aib]E[αMeF]I[dE][αMeY]LIK([AEEA-AEEA-γGlu-C14 diacid])GGPSSGAPPPS-NH2; N-terminus assumed)
Emax [1, 4]: 121%
EC50 [2, 5]: > 9950 nM
Emax [3, 6]: 76.1%
EC50 [3, 7]: 0.0202 nM

CC[C@H](C)[C@H](NC(=O)[C@H](CC(C)C)NC(=O)[C@](C)(Cc1ccc(O)cc1)NC(=O)[C@H](CCCCNC(=O)COCCOCCNC(=O)COCCOCCNC(=O)CC[C@H](NC(=O)CCCCCCCCCCCCC(=O)O)C(=O)O)NC(=O)[C@@H](NC(=O)[C@H](Cc1ccccc1)NC(=O)[C@H](CCC(=O)O)NC(=O)C(C)(C)NC(=O)[C@H](CCC(N)=O)NC(=O)[C@H](C)NC(=O)[C@H](CCCCNC(=O)COCCOCCNC(=O)COCCOCCNC(=O)CC[C@H](NC(=O)CCCCCCCCCCCCC(=O)O)C(=O)O)NC(=O)[C@H](CCCN)NC(=O)[C@H](CC(=O)O)NC(=O)[C@H](CC(C)C)NC(=O)[C@](C)(CC(C)C)NC(=O)[C@@H](NC(=O)C(C)(C)NC(=O)[C@H](Cc1ccncc1)NC(=O)[C@H](CC(=O)O)NC(=O)[C@H](CO)NC(=O)[C@@H](NC(=O)[C@](C)(Cc1ccccc1F)NC(=O)[C@@H](NC(=O)CNC(=O)[C@H](CCC(=O)O)NC(=O)C(C)(C)NC(=O)[C@@H](N)Cc1ccc(O)cc1)[C@@H](C)O)[C@@H](C)O)[C@@H](C)CC)[C@@H](C)CC)C(=O)N[C@@H](CCC(=O)O)C(=O)NCC(=O)NCC(=O)N1CCC[C@H]1C(=O)N[C@@H](CO)C(=O)N[C@@H](CO)C(=O)NCC(=O)N[C@@H](C)C(=O)N1CCC[C@H]1C(=O)N1CCC[C@H]1C(=O)N1CCC[C@H]1C(=O)N[C@@H](CO)C(N)=O [Example 113]
EC50 [1]: 0.291 nM
EC50 ([2]; hGCGR EC50, nM (SEM, n)): > 9950 nM
Emax [3, 9]: 97.9 ± 3.21%

CC[C@H](C)[C@H](NC(=O)[C@H](CC(C)C)NC(=O)[C@](C)(Cc1ccc(O)cc1)NC(=O)[C@H](CCCCNC(=O)COCCOCCNC(=O)COCCOCCNC(=O)CC[C@H](NC(=O)CCCCCCCCCCCCC(=O)O)C(=O)O)NC(=O)[C@@H](NC(=O)[C@H](Cc1ccccc1)NC(=O)[C@H](CCC(=O)O)NC(=O)C(C)(C)NC(=O)[C@H](CCC(N)=O)NC(=O)[C@H](C)NC(=O)[C@H](CCCCNC(=O)COCCOCCNC(=O)COCCOCCNC(=O)CC[C@H](NC(=O)CCCCCCCCCCCCC(=O)O)C(=O)O)NC(=O)[C@H](CCCN)NC(=O)[C@H](CC(=O)O)NC(=O)[C@H](CC(C)C)NC(=O)[C@](C)(CC(C)C)NC(=O)[C@@H](NC(=O)[C@H](CO)NC(=O)[C@@H](NC(=O)[C@H](CC(=O)O)NC(=O)[C@H](CO)NC(=O)[C@@H](NC(=O)[C@](C)(Cc1ccccc1F)NC(=O)[C@@H](NC(=O)CNC(=O)[C@H](CCC(=O)O)NC(=O)C(C)(C)NC(=O)[C@@H](N)Cc1ccc(O)cc1)[C@@H](C)O)[C@@H](C)O)C(C)C)[C@@H](C)CC)[C@@H](C)CC)C(=O)N[C@@H](CCC(=O)O)C(=O)NCC(=O)NCC(=O)N1CCC[C@H]1C(=O)N[C@@H](CO)C(=O)N[C@@H](CO)C(=O)NCC(=O)N[C@@H](C)C(=O)N1CCC[C@H]1C(=O)N1CCC[C@H]1C(=O)N1CCC[C@H]1C(=O)N[C@@H](CO)C(N)=O [Example 114]
Emax [1, 8]: 91.7%
EC50 [1]: 0.176 nM
EC50 ([2]; hGCGR EC50, nM (SEM, n)): > 9950 nM
Emax [3, 9]: 93.8%
